According to patent US20080267948A1, “Croos-B Structure Binding Compounds” (priority 2005, published 2008):
“Also recorded” adds a separate entry of the source.

Key:
[1] = test system: misfolded proteins (Hb-AGE, Aβ); assay: Binding of misfolded proteins from solution to immobilized small compounds (overall); conditions: compounds coated on ELISA plates, Hb-AGE or Aβ in solution
Experimental: To test the ability of the twelve selected compounds (see Table 7) to bind to misfolded proteins, the compounds were immobilized at 10/100/1000 μg/ml in the wells of 96-wells Greiner Microlon high binding plates, Nunc amino Immobilizer plates and Nunc Maxisorp plates. Compounds were coated in 100 mM NaHCO3 pH 9.6, 50 μl/well, 1 h at room temperature with agitation. As a control, wells were coated with buffer only. After blocking of the plates, wells were overlayed with solutions of 0.1/1/10 μg/ml Hb-AGE or 10/100 μg/ml Aβ, in binding buffer (PBS/0.1% Tween20). After washing, binding of Hb-AGE was assessed by overlaying wells with 1 μg/ml hybridoma antibody 4B5, which binds to glycations(^2), followed by RAMPO. Binding of Aβ was visualized using 500× diluted anti-Aβ antibodies (mouse antibody beta-amyloid Clone 6F/3D #M0872, lot 00003503, DAKOCytomation; β-amyloid (H-43) SC-9129, 200 μg/ml rabbit polyclonal IgG, Santa Cruz Biotechnology) and RAMPO/SWARPO in a 1:1 ratio. Finally, wells were overlayed with OPD/H2O2 solution, and H2SO4, before absorbance readings at 490 nm.

[2] = biological target: T1, heat-denatured ovalbumin (Gallus gallus, UniProt P01012); assay: Thioflavin T fluorescence of ovalbumin and small compounds; design: species or system chicken
T1 construct: purchased Sigma A5503
T1 sequence (P01012 1-386): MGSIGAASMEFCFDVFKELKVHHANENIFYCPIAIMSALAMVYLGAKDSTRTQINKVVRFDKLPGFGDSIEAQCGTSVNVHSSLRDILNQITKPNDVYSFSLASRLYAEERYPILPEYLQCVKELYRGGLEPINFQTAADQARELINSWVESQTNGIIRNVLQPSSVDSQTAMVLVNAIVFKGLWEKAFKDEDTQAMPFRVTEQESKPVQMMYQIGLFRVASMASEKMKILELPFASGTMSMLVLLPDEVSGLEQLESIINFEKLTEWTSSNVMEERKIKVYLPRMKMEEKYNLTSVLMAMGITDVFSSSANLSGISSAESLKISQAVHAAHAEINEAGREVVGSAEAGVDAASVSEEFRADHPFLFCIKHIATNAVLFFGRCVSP
Summary of the method: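 Heat-denatured ovalbumin at 1 mg/ml in PBS, alone, with 1% v/v DMSO or with 1 mg/ml compound (also heat-denatured after compound addition), mixed 1:9 with 25 μM ThT in 50 mM glycine pH 9.0. Fluorescence read in duplicate at 435 nm excitation, 485 nm emission.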

[3] = biological target: T2, amyloid-β(1-40) E22Q (Homo sapiens, UniProt P05067, E693Q); assay: ELISA binding of tPA to immobilized Aβ after pre-incubation with compounds; conditions: for % tPA binding (after compound incubation), Aβ: 1 μg/ml coated Aβ first exposed to 500 μg/ml compound, then 80 nM tPA, control = 100; for influence on tPA binding to immobilized Aβ: Aβ first overlayed with compound (concentration series), then tPA
T2 construct: For similar ELISA's with DOVA and Aβ(1-40) E22Q, 1 μg/ml DOVA or Aβ was coated; purchased Peptide facility, Dutch Cancer Institute, Amsterdam; host or cells: synthetic peptide
T2 sequence (P05067 672-711 E693Q): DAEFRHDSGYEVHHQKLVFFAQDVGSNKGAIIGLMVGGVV
Experimental: (§1) Compounds were now diluted 10× in PBS/0.1% Tween20 (500 μg/ml compound). […] With this approach a further selection of the compounds was achieved. Now, compounds that at least interact with HB-AGE are selected. With the selection, similar binding assays are performed with misfolded OVA and Aβ. Finally, concentration series of the selected compounds are used in the binding studies.

[4] = biological target: T3, heat-denatured misfolded ovalbumin (DOVA) (Gallus gallus, UniProt P01012); assay: ELISA binding of tPA to immobilized misfolded ovalbumin after pre-incubation with compounds; design: species or system chicken; conditions: for influence on tPA binding to immobilized misfolded OVA: misfolded OVA first overlayed with compound (concentration series), then tPA; for activity at 500 µg/mL: read-out: % tPA binding (after compound incubation), DOVA
T3 construct: purchased Sigma A5503
T3 sequence (P01012 2-386 limits assumed): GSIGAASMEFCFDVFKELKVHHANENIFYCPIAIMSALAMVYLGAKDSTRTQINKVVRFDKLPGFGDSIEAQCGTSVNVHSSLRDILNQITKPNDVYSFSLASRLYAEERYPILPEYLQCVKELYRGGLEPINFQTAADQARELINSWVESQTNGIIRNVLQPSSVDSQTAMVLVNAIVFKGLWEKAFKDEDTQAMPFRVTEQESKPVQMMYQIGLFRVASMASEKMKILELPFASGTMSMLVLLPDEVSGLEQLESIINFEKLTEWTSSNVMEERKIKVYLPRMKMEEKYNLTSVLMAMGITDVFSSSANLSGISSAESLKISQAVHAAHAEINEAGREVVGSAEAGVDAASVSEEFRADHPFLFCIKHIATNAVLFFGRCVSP
Experimental: as §1

[5] = biological target: T4, ovalbumin (Gallus gallus, UniProt P01012); assay: Transmission electron microscopy of ovalbumin heated in the presence of small compounds; design: species or system chicken; conditions: 1 mg/ml ovalbumin heated with 1 mg/ml compound
T4 construct: purchased Sigma A5503
T4 sequence (P01012 1-386): T1 sequence (P01012 1-386)
Summary of the method: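 Ovalbumin at 1 mg/ml was applied to carbon-coated Formvar copper grids, washed with PBS and water, then stained 2 min in 2% methylcellulose with 0.4% uranyl acetate, pH 4. Grids were dried and imaged by TEM at 80 kV.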

[6] = biological target: T5, Hb-AGE (Homo sapiens, UniProt P68871+P69905); assay: ELISA binding of tPA to immobilized Hb-AGE after pre-incubation with compounds; conditions: then tPA; for influence on tPA binding to immobilized Hb-AGE: Hb-AGE first overlayed with compound (concentration series); for % tPA binding (after compound incubation), HbAGE: immobilized Hb-AGE first exposed to 500 μg/ml compound, control = 100
T5 construct: purchased Sigma-Aldrich H7379
T5 sequence (P69905 2-142 limits assumed): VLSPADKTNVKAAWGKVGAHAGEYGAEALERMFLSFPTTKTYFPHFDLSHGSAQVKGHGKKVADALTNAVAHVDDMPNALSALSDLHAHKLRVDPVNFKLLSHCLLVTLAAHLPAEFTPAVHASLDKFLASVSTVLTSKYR
T5 sequence (P68871 2-147 limits assumed): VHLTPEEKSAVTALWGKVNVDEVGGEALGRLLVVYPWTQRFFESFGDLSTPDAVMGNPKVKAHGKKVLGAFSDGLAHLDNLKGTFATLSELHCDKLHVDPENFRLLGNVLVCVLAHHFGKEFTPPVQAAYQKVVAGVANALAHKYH
Experimental: Compounds were now diluted 10× in PBS/0.1% Tween20 (500 μg/ml compound). […] With the selection, similar binding assays are performed with misfolded OVA and Aβ. Finally, concentration series of the selected compounds are used in the binding studies.

SMILES | capture of misfolded protein from solution by immobilized compound [1] | influence on Thioflavin T fluorescence with misfolded OVA ([2]; 1 mg/ml compound, 1 mg/ml OVA) | % tPA binding (after compound incubation), Aβ [3] [%] | influence on tPA binding to immobilized Aβ [3] | influence on tPA binding to immobilized misfolded OVA [4] | activity at 500 µg/mL [4] [%] | appearance of ovalbumin heated in the presence of compound on TEM image [5] | influence on tPA binding to immobilized Hb-AGE [6] | % tPA binding (after compound incubation), HbAGE [6] [%] | reduction in Thioflavin T fluorescence enhancement, compound and OVA heated together ([2]; 1 mg/ml compound, 1 mg/ml OVA, PBS/1% DMSO) [%] | inhibition at 1000 µg/mL ([2]; 1 mg/ml compound, 1 mg/ml OVA, PBS/1% DMSO, read-out: inhibition of Thioflavin T fluorescence, compound mixed with pre-formed misfolded OVA) [%] | formation of Thioflavin T binding sites in heated OVA ([2]; OVA and compound heated together) | appearance of ovalbumin heated in the presence of compound on TEM image ([5]; hydrate)
COc1cc2c(cc1O)C[C@H]1c3c(cc(OC)c(O)c3-2)CCN1C [compound 202, Isoboldine] | Capture of misfolded protein from solution | Inhibition on Thioflavin T fluorescence with misfolded OVA | 250 | Stimulated tPA binding to immobilized misfolded protein (Aβ, | Stimulated tPA binding to immobilized misfolded protein (Aβ, | 420 | Larger and more dense aggregates than control. Small | Stimulated tPA binding to immobilized misfolded protein (Aβ, | 250 | – | – | – | –
COc1cc2c(cc1OC)-c1c(O)c(OC)cc3c1[C@H](C2)N(C)CC3 [compound 201, Thaliporphine, thalicmidine] | Capture of misfolded protein from solution | Inhibition of Thioflavin T fluorescence with misfolded OVA | 400 | – | – | 400 | Spherical aggregates with background of smaller | Stimulated tPA binding to immobilized misfolded protein (Hb- | 110 | – | – | – | –
O=c1oc2c(O)c(O)cc3c(=O)oc4c(O)c(O)cc1c4c23 [compound 117, Ellagic acid hydrate] | Capture of misfolded protein from solution | Inhibition on Thioflavin T fluorescence with misfolded OVA | – | Stimulated tPA binding to immobilized misfolded protein (Hb- | Stimulated tPA binding to immobilized misfolded protein (Hb- | – | – | Stimulated tPA binding to immobilized misfolded protein (Hb- | – | 90 | ~50 | Inhibition of formation of Thioflavin T binding sites in heated | less OVA aggregates after heating in the presence of the; also recorded: Clusters of needle-like structures. No aggregates
